We go through 21 compounds from patent publication US10287258B2, “Certain (2S)-N-[(1S)-1-cyano-2-phenylethyl]-1,4-oxazepane-2-carboxamides as dipeptidyl peptidase 1 inhibitors” (AstraZeneca AB, priority 2014, dated 2019).

T1 sequence (P53634 231-394): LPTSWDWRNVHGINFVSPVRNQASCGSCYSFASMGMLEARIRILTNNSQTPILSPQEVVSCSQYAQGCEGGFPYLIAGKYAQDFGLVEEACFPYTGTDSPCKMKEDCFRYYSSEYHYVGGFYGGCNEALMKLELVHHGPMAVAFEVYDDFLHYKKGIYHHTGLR
T1 sequence (P53634 25-134): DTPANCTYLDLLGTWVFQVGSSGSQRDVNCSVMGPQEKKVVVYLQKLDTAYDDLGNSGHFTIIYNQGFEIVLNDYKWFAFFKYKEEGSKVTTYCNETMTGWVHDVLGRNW
T1 sequence (P53634 395-463): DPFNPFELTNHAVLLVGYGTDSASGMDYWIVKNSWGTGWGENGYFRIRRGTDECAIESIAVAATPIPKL

Test system in the first data set: not listed separately
As to the kind of experiment: Rat quantitative whole-body autoradiography (QWBA) studies, aortic retention. Format: in vivo.
Conditions: not given
Turning to `N#Cc1ccc(-c2ccc(C[C@@H](C#N)NC(=O)C3(N)CCOCC3)cc2)cc1` [WO2010/128324 (Ex. 3), 4-amino-N-[(1S)-1-cyano-2-(4′-cyanobiphenyl-4-yl)ethyl]tetrahydro-2H-pyran-4-carboxamide], the “aortic retention in rat QWBA studies” value was “high level of aortic retention”.

The target in the next data set is T1, recombinant human DPP1 (rhDPP1) (Homo sapiens (Human), UniProt P53634). In words: Test A2: Fluorescence assay for recombinant human (RH) DPP1. Particulars: Test A2 (Examples 36-37); 96.4 pM rhDPP1, 50 μM H-Gly-Arg-AMC, pH 5.0, rt. Format: biochemical. As to the method:
Test A2: Fluorescence Assay for Recombinant Human (RH) DPP1
The activity of DPP1 was determined by measuring the enzymatic release of aminomethyl coumarin (AMC) from the peptide substrate (H-Gly-Arg-AMC), which leads to an increase in fluorescence intensity at λex=350 nm and λem=450 nm. The assay was carried out in black 384 well plates in a final volume of 10 μl at rt. The assay conditions contained the following: 25 mM piperazine buffer pH 5.0; 50 mM NaCl, 5 mM DTT; 0.005 (v/v) Triton X-100; 50 μM H-Gly-Arg-AMC and 96.4 pM rhDPP1 Potential inhibitors were diluted in DMSO to generate 100× of the final assay concentration. The compounds were tested at 10 concentrations with half-log dilution steps (highest concentration typically 1 μM) and with a final DMSO concentration of 1% (v/v). Routinely, inhibitors were pre-incubated with rhDPP1 for 30 min prior to the addition of the peptide substrate to start the reaction for a further 30 min. After incubation the plates were read in a fluorescence plate reader using the above emission and excitation wavelengths. The pIC50 were determined using a 4-paramater logistic equation in a non-linear curve fitting routine (Smartfit, Genedata Screener®). […]
Consider `CC[C@@H](/C=C/C(=O)N1CCc2ccccc21)NC(=O)[C@@H]1CNCCCO1.O=C(O)C(F)(F)F` [Example 36], for which the “DPP1 activity, pIC50” value worked out at 8.3.
Same read-out and setting: for `CC(C)C[C@@H](/C=C/C(=O)N1CCc2ccccc21)NC(=O)[C@@H]1CNCCCO1.O=C(O)C(F)(F)F` [Example 37, (2S)-2-[(2E,4S)-1-(2,3-Dihydro-1H-indol-1-yl)-6-methyl-1-oxohept-2-en-4-yl]-1,4-oxazepane-2-carboxamide trifluoroactetate] the value was 8.28.

Test system in another data set: not listed separately
As to the kind of experiment: Test B: In-vitro competitive aortic tissue binding assay. The following applies: 100 μM compound, competition with [14C]4-amino-N-[(1S)-1-cyano-2-(4′-cyanobiphenyl-4-yl)ethyl]tetrahydro-2H-pyran-4-carboxamide, rat aortic homogenate. As to the method:
Test B: In-Vitro Competitive Aortic Tissue Binding Assay
Aortic homogenate was prepared from the thoracic aortae of Han Wistar rats. Freshly isolated thoracic aortae were frozen, and later thawed and stripped of non-elastic material. […] Homogenate concentration was adjusted to 30 mg/mL in Puck's saline, and aliquots were stored at −80° C. until use. Positive and negative control compounds and test compounds were made up to 100 mM in DMSO, and added to 1 mL aliquots of aortic homogenate in Puck's saline for a final concentration of 100 μM. Homogenate samples were pre-incubated with test compounds at 37° C., rotating, overnight. [^14C]4-Amino-N-[(1S)-1-cyano-2-(4′-cyanobiphenyl-4-yl)ethyl]tetrahydro-2H-pyran-4-carboxamide was then added to all samples to a final concentration of 100 μM, and samples were incubated at 37° C., rotating, for a further 2 h. Protein was precipitated from each sample by the addition of 10 mL acetone, pre-chilled to −20° C. Samples were left overnight at −20° C. to allow complete precipitation. […] Precipitate was washed by resuspension in 10 mL 80% methanol in distilled water, and re-pelleted by centrifugation at 4,500× g at 4° C. for 20 min. […] After final wash, precipitate was air-dried, and dissolved overnight in 1 mL NCSII Tissue Solubiliser. 1 mL aliquots of supernatants were added to 5 mL Ultima Gold scintillation fluid (Perkin Elmer, MA, U.S.A.), and 1 mL solubilised pellets were added to 5 mL Hionic-Fluor scintillation fluid (Perkin Elmer, MA, U.S.A.). Radioactivity of samples was determined on a Beckman LS6500 multipurpose scintillation counter (Beckman Coulter, IN, U.S.A.). […] Duplicate samples were tested for each compound on each experimental occasion, and at least two experiments were run for each test compound. […] 1-way ANOVA and Bonferroni's multiple comparison tests were performed to calculate significance of differences from vehicle control.
Take `Cn1c(=O)oc2ccc(-c3ccc(C[C@@H](C#N)NC(=O)[C@@H]4CNCCCO4)cc3)cc21` [Example 2, (2S)-N-{(1S)-1-Cyano-2-[4-(3-methyl-2-oxo-2,3-dihydro-1,3-benzoxazol-5-yl)phenyl]ethyl}-1,4-oxazepane-2-carboxamide]: the “Aortic Tissue Binding” value was “No binder”.
Still for that read-out and setting: for `N#Cc1ccc(-c2ccc(C[C@@H](C#N)NC(=O)[C@@H]3CCCCN3)cc2)cc1` [WO2009/074829 (Example 24)] the value was “Binder”; for `Cn1c(=O)oc2ccc(-c3ccc(C[C@@H](C#N)NC(=O)[C@@H]4CCCCN4)cc3)cc21` [WO2009/074829 (Example 96)], “Medium binder”.
Still for that read-out and setting: the same measure for `N#Cc1ccc(-c2ccc(C[C@@H](C#N)NC(=O)C3(N)CCOCC3)cc2)cc1` [WO2010/128324 (Ex. 3), 4-amino-N-[(1S)-1-cyano-2-(4′-cyanobiphenyl-4-yl)ethyl]tetrahydro-2H-pyran-4-carboxamide]: “Strong binder reference”; for `Cn1c(=O)oc2ccc(-c3ccc(C[C@@H](C#N)NC(=O)C4(N)CCOCC4)cc3)cc21` [WO2010/128324 (Example 17)]: “Strong binder”.

For a further data set, the target named is T1, recombinant human DPP1 (rhDPP1). In words: Test A1: Fluorescence assay for recombinant human (RH) DPP1. The data set is classed as biochemical. Particulars: Test A1 (Examples 1-35); rhDPP1 ~50 pM, 100 μM H-Gly-Arg-AMC, pH 5.0, 22° C. As to the method:
Test A1: Fluorescence Assay for Recombinant Human (RH) DPP1
The activity of DPP1 was determined by measuring the enzymatic release of aminomethyl coumarin (AMC) from the peptide substrate (H-Gly-Arg-AMC), which leads to an increase in fluorescence intensity at λex=350 nm and λem=450 nm. The assay was carried out in black 384 well plates in a final volume of 50 μl at 22° C. The assay conditions contained the following: 25 mM piperazine buffer pH 5.0; 50 mM NaCl, 5 mM DTT; 0.01% (v/v) Triton X-100; 100 μM H-Gly-Arg-AMC and rhDPP1 (˜50 pM). […] Routinely, inhibitors were pre-incubated with rhDPP1 for 30-60 min prior to the addition of the peptide substrate to start the reaction for a further 60 min at 22° C.
As to `N#C[C@H](Cc1ccc(-c2ccc3oc(=O)n(CC4CC4)c3c2)cc1)NC(=O)[C@@H]1CNCCCO1` [Example 17, (2S)-N-[(1S)-1-Cyano-2-{4-[3-(cyclopropylmethyl)-2-oxo-2,3-dihydro-1,3-benzoxazol-5-yl]phenyl}ethyl]-1,4-oxazepane-2-carboxamide], the “DPP1 activity, pIC50” value turned out to be 8.2.
On to `COCCn1c(=O)sc2ccc(-c3ccc(C[C@@H](C#N)NC(=O)[C@@H]4CNCCCO4)cc3)cc21` [Example 18, (2S)-N-[(1S)-1-Cyano-2-{4-[3-(2-methoxyethyl)-2-oxo-2,3-dihydro-1,3-benzothiazol-5-yl]phenyl}ethyl]-1,4-oxazepane-2-carboxamide], for which the “DPP1 activity, pIC50” value is reported as 8.5.
The same measure, in the same setting: the same measure for `CN1C(=O)COc2ccc(-c3ccc(C[C@@H](C#N)NC(=O)[C@@H]4CNCCCO4)cc3)cc21` [Example 20, (2S)-N-{(1S)-1-Cyano-2-[4-(4-methyl-3-oxo-3,4-dihydro-2H-1,4-benzoxazin-6-yl)phenyl]ethyl}-1,4-oxazepane-2-carboxamide]: 7.9.
Still for that read-out and setting: for `COCCn1c(=O)oc2ccc(-c3ccc(C[C@@H](C#N)NC(=O)[C@@H]4CNCCCO4)cc3)cc21` [Example 21, (2S)-N-[(1S)-1-Cyano-2-{4-[3-(2-methoxyethyl)-2-oxo-2,3-dihydro-1,3-benzoxazol-5-yl]phenyl}ethyl]-1,4-oxazepane-2-carboxamide] the value was 8.09; for `N#Cc1ccc(-c2ccc(C[C@@H](C#N)NC(=O)[C@@H]3CNCCCO3)cc2)s1` [Example 22, (2S)-N-{(1S)-1-Cyano-2-[4-(5-cyanothiophen-2-yl)phenyl]ethyl}-1,4-oxazepane-2-carboxamide], 7.71.
Same read-out and setting: the same measure for `Cn1c(=O)ccc2ccc(-c3ccc(C[C@@H](C#N)NC(=O)[C@@H]4CNCCCO4)cc3)cc21` [Example 24, (2S)-N-{(1S)-1-Cyano-2-[4-(1-methyl-2-oxo-1,2-dihydroquinolin-7-yl)phenyl]ethyl}-1,4-oxazepane-2-carboxamide]: 7.86.
With `N#C[C@H](Cc1ccc(-c2ccc3oc(=O)n(CC4CCOCC4)c3c2)cc1)NC(=O)[C@@H]1CNCCCO1` [Example 25, (2S)-N-[(1S)-1-Cyano-2-{4-[2-oxo-3-(tetrahydro-2H-pyran-4-ylmethyl)-2,3-dihydro-1,3-benzoxazol-5-yl]phenyl}ethyl]-1,4-oxazepane-2-carboxamide], the “DPP1 activity, pIC50” value amounted to 7.97.
The same measure, in the same setting: for `Cn1c(=O)oc2c(Cl)cc(-c3ccc(C[C@@H](C#N)NC(=O)[C@@H]4CNCCCO4)cc3)cc21` [Example 26, (2S)-N-{(1S)-2-[4-(7-Chloro-3-methyl-2-oxo-2,3-dihydro-1,3-benzoxazol-5-yl)phenyl]-1-cyanoethyl}-1,4-oxazepane-2-carboxamide] the value was 7.87.
As to `N#C[C@H](Cc1ccc(-c2ccc3oc(=O)n(CC(F)F)c3c2)cc1)NC(=O)[C@@H]1CNCCCO1` [Example 27, (2S)-N-[(1S)-1-Cyano-2-{4-[3-(2,2-difluoroethyl)-2-oxo-2,3-dihydro-1,3-benzoxazol-5-yl]phenyl}ethyl]-1,4-oxazepane-2-carboxamide], the “DPP1 activity, pIC50” value is given as 8.18.
In the case of `N#C[C@H](Cc1ccc(-c2ccc3oc(=O)n(CC(F)(F)F)c3c2)cc1)NC(=O)[C@@H]1CNCCCO1` [Example 28, (2S)-N-[(1S)-1-Cyano-2-{4-[2-oxo-3-(2,2,2-trifluoroethyl)-2,3-dihydro-1,3-benzoxazol-5-yl]phenyl}ethyl]-1,4-oxazepane-2-carboxamide], the “DPP1 activity, pIC50” value turned out to be 8.09.
Same read-out and setting: the same measure for `Cn1c(=O)sc2ccc(-c3ccc(C[C@@H](C#N)NC(=O)[C@@H]4CNCCCO4)cc3)cc21` [Example 29, (2S)-N-{(1S)-1-Cyano-2-[4-(3-methyl-2-oxo-2,3-dihydro-1,3-benzothiazol-5-yl)phenyl]ethyl}-1,4-oxazepane-2-carboxamide]: 8.62; for `N#C[C@H](Cc1ccc(-c2ccc(S(=O)(=O)N3CCC3)cc2)cc1)NC(=O)[C@@H]1CNCCCO1` [Example 31, (2S)-N-{(1S)-2-[4′-(Azetidin-1-ylsulfonyl)biphenyl-4-yl]-1-cyanoethyl}-1,4-oxazepane-2-carboxamide]: 7.67; for `N#C[C@H](Cc1ccc(-c2ccc(F)cc2)cc1)NC(=O)[C@@H]1CNCCCO1` [Example 32, (2S)-N-[(1S)-1-Cyano-2-(4′-fluorobiphenyl-4-yl)ethyl]-1,4-oxazepane-2-carboxamide]: 7.37.
For the compound `N#C[C@H](Cc1ccc(-c2ccc3scnc3c2)cc1)NC(=O)[C@@H]1CNCCCO1` [Example 33, (2S)-N-{(1S)-2-[4-(1,3-Benzothiazol-5-yl)phenyl]-1-cyanoethyl}-1,4-oxazepane-2-carboxamide], the “DPP1 activity, pIC50” value is given as 7.21.
